In article PMC8469489, “Effect of Lactic Acid Bacteria on the Pharmacokinetics and Metabolism of Ginsenosides in Mice” (Pharmaceutics, 2021):
Where two headings read alike, the source gives them in different places.

Columns and labels:
[1] = Recovery of ginsenosides from urine and feces for 48 h after RGE, amoxicillin with or without LAB; settings: for Fecal recovery, change by LAB treatment: feces 48 h after single oral RGE 2 g/kg, Amoxicillin + LAB vs amoxicillin
Experimental: (§2) Mice received amoxicillin (n = 12, 20 mg/kg, dissolved in water at 2 mL/kg, twice daily) for 3 days via oral gavage. From the 4th day, mice from the LAB + amoxicillin treatment group received LAB (2 g/kg suspended in water at 2 mL/kg, once daily) for 7 days via oral gavage. Mice from the amoxicillin treatment group received water (2 mL/kg, once daily) for 7 days via oral gavage.

[2] = system: lactic acid bacteria (LAB); test: In vitro RGE fermentation with LAB; settings: for Alteration of ginsenoside by fermentation of RGE with LAB: 7 days incubation; for Increase of ginsenoside by fermentation of RGE with LAB: 7 days, relative to the first day
[3] = set-up: method as in PMID 29375375, PMID 28955238; settings: 100–400 mg of CK, once daily for 9 days; cited from earlier work
[4] = Pharmacokinetics of ginsenosides after single oral RGE with or without amoxicillin treatment; type: in vivo, mice; settings: single oral RGE 2 g/kg; for AUC: AUC 0 to 48 h
Experimental: Male ICR mice (7-weeks-year-old, 30–35 g) were purchased from Samtako Co. (Osan, Kyunggi-do, Korea). Animals were acclimatized for 1 week in an animal facility at Kyungpook National University. Food and water were available ad libitum.
Before blood sampling, mice were anesthetized using isoflurane (isoflurane vaporizer to 2% with oxygen flow at 0.8 L/min) for 5 min.

[5] = Pharmacokinetics of ginsenosides after single oral RGE after amoxicillin with or without repeated LAB treatment; settings: single oral RGE 2 g/kg; for AUC: AUC 0 to 48 h
Experimental: as §2
Blood sampling was performed using a sparse sampling method via the right or left retro-orbital vein under isoflurane anesthesia at 0, 2, 4, and 8 h after the RGE administration through the heparinized capillary tube. […] After centrifugation of the blood samples at 10,000× g for 1 min, 30 μL aliquots of plasma were stored at −80 °C until the analysis of the ginsenosides. Subsequent protocols were identical to the amoxicillin treated group.
Pharmacokinetic parameters were calculated using WinNonlin (version 5.1, Pharsight, Mountain View, CA, USA) by a non-compartmental analysis.

[6] = Recovery of ginsenosides from urine and feces for 48 h after RGE, amoxicillin vs control; settings: for Fecal recovery, change by the amoxicillin treatment: feces 48 h after single oral RGE 2 g/kg, vs control; for Ginsenosides identified in urine: urine 48 h after single oral RGE 2 g/kg
Experimental: Aliquots (200 μL) of an IS (0.05 ng/mL berberine in methanol) were added to 30 μL of plasma or urine samples. Aliquots (600 μL) of an IS methanol solution containing 0.05 ng/mL berberine were added to 100 μL of 10% feces homogenate samples. […] After centrifugation, 200 μL of the supernatant was transferred to a clean tube and dried under a nitrogen stream at 40 °C. The residue was reconstituted using 100 μL of 70% methanol supplemented with 0.1% formic acid, and a 10-μL aliquot was injected into the LC–MS/MS system.

[7] = set-up: method as in PMID 27516803, PMID 24235859; settings: cited from earlier work
[8] = Plasma protein binding by rapid equilibrium dialysis; type: in vitro ADME; settings: 1 μM, 4 h at 37 °C, mouse plasma
Experimental: Briefly, 100 μL of mouse plasma containing 1 μM of each ginsenoside was added to the semipermeable membrane’s inner sample chamber (molecular weight cut-off 8000 Da), and 300 μL of PBS was added to the outer buffer chamber. The samples were then incubated for 4 h at 37 °C on a shaking incubator at 300 rpm, followed by collecting 30-μL aliquots from both the sample and buffer chambers.
(§1) Subsequent protocols were identical to the method described above except for the use of ice-cold IS solution (200 μL; 0.05 ng/mL berberine in acetonitrile) to 30 μL of the reaction samples.
Plasma protein binding was calculated using the following equation [31, 60]: Plasma protein binding=(1−Drug concentration in buffer chamber/Drug concentration in plasma sample chamber)×100(%).

[9] = set-up: method as in PMID 32023909; settings: cited from earlier work
[10] = system: lactic acid bacteria (LAB); test: Incubation of single ginsenoside with LAB (formation rate of metabolite ginsenoside); type: in vitro ADME; settings: 7 days, 37 °C, MRS broth
Experimental: To compare the involvement of LAB on individual ginsenoside, an aliquot (10 μL) of each ginsenoside stock solution (10 mM in methanol) was mixed with autoclaved MRS broth (550 mg/10 mL in distilled water) and added 2 g of LAB (contained 1 billion CFU). Then, the mixture was incubated for 7 days in a shaking incubator at 37 °C and 300 rpm. For the analysis of ginsenosides, 0.2 mL aliquot of incubation mixture was collected every 24 h for 7 days. The incubation medium was diluted 100-fold with distilled water and stored at −80 °C. For the ginsenoside analysis, 200 μL of an IS solution (0.05 ng/mL berberine in methanol) was added to 30 μL of 100-fold diluted samples.

Microsomal stability = type: in vitro ADME, mouse; settings: 1 μM; for Metabolic stability in mouse liver microsomes: incubation for 1 h
Experimental: For microsomal stability, individual ginsenoside (1 μM each) was reconstituted in 100 mM potassium phosphate buffer (pH 7.4) containing 0.25 mg of mouse liver microsomes and preincubated for 5 min at 37 °C. This reaction was initiated by adding an NADPH-generating system (1.3 mM β-NADP, 3.3 mM glucose-6-phosphate, 3.3 mM MgCl2, and 1.0 unit/mL glucose-6-phosphate dehydrogenase; purchased form Corning Life Sciences) (to make final volume of 100 μL). The reaction mixture was incubated for 1 h at 37 °C in a shaking water bath and the reaction was quenched by addition of addition of an ice-cold IS solution (200 μL; 0.05 ng/mL berberine in methanol) to 30 μL of the reaction samples.
as §1
Plasma and microsomal stability was determined from the percent of remaining concentration of ginsenosides or marker compounds compared to their initial concentration.

[11] = Amoxicillin + LAB (LAB 2 g/kg once daily 7 days)
[12] = Amoxicillin 3 days pretreatment
[13] = Amoxicillin 3 days then water 7 days

| Compound | Fecal recovery, change by LAB treatment [1] | Alteration of ginsenoside by fermentation of RGE with LAB [2] | Cmax ([4]; Control, plasma) [ng/mL] | Half-Life ([4]; Control, plasma) [h] | MRT ([4]; Control, plasma) [h] | Tmax ([4]; Control, plasma) [h] | AUC ([4]; Control, plasma, n = 3) [ng·h/mL] | AUC [5, 11] [ng·h/mL] | Cmax ([5]; Amoxicillin + LAB) [ng/mL] | Half-Life ([5]; Amoxicillin + LAB) [h] | MRT ([5]; Amoxicillin + LAB) [h] | Tmax ([5]; Amoxicillin + LAB) [h] | Detection in mouse plasma following repeated LAB administration in addition to amoxicillin [5] | Plasma exposure / pharmacokinetic parameters, LAB treatment compared with amoxicillin group [5] | Ginsenosides identified in urine [6] | Metabolite formation on incubation of single ginsenoside with LAB [10] | other results |
| --- | --- | --- | --- | --- | --- | --- | --- | --- | --- | --- | --- | --- | --- | --- | --- | --- | --- |
| CC(C)=CCC[C@](C)(O[C@@H]1O[C@H](CO)[C@@H](O)[C@H](O)[C@H]1O)[C@H]1CC[C@]2(C)[C@@H]1[C@H](O)C[C@@H]1[C@@]3(C)CC[C@H](O)C(C)(C)[C@@H]3CC[C@]12C [CK, 20(S)-compound K] | significantly increased | significantly increased | 3.6 ± 1.4 | 13.2 ± 3.2 | 13.9 ± 5.3 | 8.0 ± 0.0 | 69.94 ± 37.8 | 249.8 ± 103.0 | 9.3 ± 2.9 | 12.0 ± 5.0 | 13.7 ± 6.2 | 8.0 ± 0.0 | detected | increased | identified in urine | – | Increase of ginsenoside by fermentation of RGE with LAB [2]: about 30%; Safety and tolerability [3]: safe and well-tolerated; Detection in plasma, amoxicillin treatment group [4]: not seen; Detection in plasma, control group [4]: detected; Fecal recovery, change by the amoxicillin treatment [6]: significantly decreased; Plasma concentration of CK, Cmax ([7]; subjects who received 3 g fermented RGE (contains 10.9 mg CK)): 254.5 ng/mL; Plasma concentration of CK, Cmax ([7]; subjects who received RGE (does not contain CK)): 8.4 to 24.8 ng/mL |
| CC(C)=CCC[C@](C)(O[C@@H]1O[C@H](CO)[C@@H](O)[C@H](O)[C@H]1O)[C@H]1CC[C@]2(C)[C@@H]1[C@H](O)C[C@@H]1[C@@]3(C)CC[C@H](O)C(C)(C)[C@@H]3[C@@H](O)C[C@]12C [GF1] | remained similar | most significant decrease | – | – | – | – | – | – | – | – | – | – | – | – | – | – | Plasma protein binding [8]: over 99% |
| CC(C)=CCC[C@](C)(O[C@@H]1O[C@H](CO[C@@H]2O[C@@H](CO)[C@H](O)[C@H]2O)[C@@H](O)[C@H](O)[C@H]1O)[C@H]1CC[C@]2(C)[C@@H]1[C@H](O)C[C@@H]1[C@@]3(C)CC[C@H](O[C@@H]4O[C@H](CO)[C@@H](O)[C@H](O)[C@H]4O[C@@H]4O[C@H](CO)[C@@H](O)[C@H](O)[C@H]4O)C(C)(C)[C@@H]3CC[C@]12C [GRc] | significantly decreased | most significant decrease | 17.2 ± 3.1 | 22.8 ± 6.7 | 19.9 ± 1.7 | 8.0 ± 0.0 | 508.6 ± 109 | 524.4 ± 146.6 | 18.3 ± 4.3 | 24.1 ± 2.4 | 19.0 ± 1.3 | 8.0 ± 0.0 | detected | not different | identified in urine | produced GRg3 with the highest formation rate | Ratio of liver AUC to plasma AUC [9]: < 0.2; Cmax [4, 12]: 14.8 ± 6.6 ng/mL; Half-Life [4, 12]: 25.1 ± 9.9 h; MRT [4, 12]: 21.9 ± 1.5 h; Tmax [4, 12]: 13.3 ± 9.2 h; AUC [4, 12]: 571.7 ± 276 ng·h/mL; Plasma concentrations, amoxicillin treatment compared to the control group [4]: not significantly affected; Cmax [5, 13]: 13.2 ± 6.6 ng/mL; Half-Life [5, 13]: 20.2 ± 1.8 h; MRT [5, 13]: 20.6 ± 1.2 h; Tmax [5, 13]: 4.7 ± 3.1 h; AUC [5, 13]: 448.2 ± 268.1 ng·h/mL; Fecal recovery, change by the amoxicillin treatment [6]: increased |
| CC(C)=CCC[C@](C)(O[C@@H]1O[C@H](CO)[C@@H](O)[C@H](O)[C@H]1O)[C@H]1CC[C@]2(C)[C@@H]1[C@H](O)C[C@@H]1[C@@]3(C)CC[C@H](O[C@@H]4O[C@H](CO)[C@@H](O)[C@H](O)[C@H]4O[C@@H]4O[C@H](CO)[C@@H](O)[C@H](O)[C@H]4O)C(C)(C)[C@@H]3CC[C@]12C [GRd] | significantly decreased | gradual decrease | 8.6 ± 1.8 | 24.2 ± 3.1 | 21.3 ± 3.0 | 13.3 ± 9.2 | 278.8 ± 117 | 618.1 ± 385.6 | 18.4 ± 6.9 | 25.5 ± 3.8 | 20.6 ± 3.7 | 16.0 ± 9.2 | detected | increased | identified in urine | produced GRg3 with the highest formation rate | Urinary excretion, Amoxicillin + LAB compared with amoxicillin group ([1]; urine 48 h after single oral RGE 2 g/kg): increased; Ratio of liver AUC to plasma AUC [9]: < 0.2; Cmax [4, 12]: 3.2 ± 1.6 ng/mL; Half-Life [4, 12]: 29.1 ± 8.6 h; MRT [4, 12]: 24.0 ± 2.1 h; Tmax [4, 12]: 24.7 ± 23.0 h; AUC [4, 12]: 132.4 ± 77 ng·h/mL; Plasma concentrations, amoxicillin treatment compared to the control group [4]: decreased; Cmax [5, 13]: 6.5 ± 5.1 ng/mL; Half-Life [5, 13]: 29.2 ± 2.7 h; MRT [5, 13]: 24.1 ± 3.9 h; Tmax [5, 13]: 5.3 ± 2.3 h; AUC [5, 13]: 213.1 ± 151.3 ng·h/mL; Plasma exposure / pharmacokinetic parameters, LAB treatment compared with amoxicillin group ([5]; listed as Rd): significantly increased |
| CC(C)=CCC[C@](C)(O)[C@H]1CC[C@]2(C)[C@@H]1[C@H](O)C[C@@H]1[C@@]3(C)CC[C@H](O)C(C)(C)[C@@H]3[C@@H](O[C@@H]3O[C@H](CO)[C@@H](O)[C@H](O)[C@H]3O)C[C@]12C [GRh1, ginsenoside Rh1] | remained similar | – | – | – | – | – | – | – | – | – | – | – | not found | – | – | – | Metabolic stability in mouse liver microsomes (Microsomal stability): unstable; Increase of ginsenoside by fermentation of RGE with LAB [2]: about 30% |
| CC(C)=CCC[C@](C)(O)[C@H]1CC[C@]2(C)[C@@H]1[C@H](O)C[C@@H]1[C@@]3(C)CC[C@H](O[C@@H]4O[C@H](CO)[C@@H](O)[C@H](O)[C@H]4O)C(C)(C)[C@@H]3CC[C@]12C [GRh2] | remained similar | remained unchanged | – | – | – | – | – | – | – | – | – | – | not found | – | – | the highest among the ginsenoside formation rate | Metabolic stability in mouse liver microsomes (Microsomal stability): unstable |
| CN(C)C(=N)N=C(N)N [metformin, reference compound] | – | – | – | – | – | – | – | – | – | – | – | – | – | – | – | – | percent of remaining after 1 h incubation in the mouse liver microsomes (Microsomal stability; NADPH-generating system, 37 °C): 69.35 ± 3.00% |
